Experimental findings from ChEMBL document CHEMBL3608201, “Synthesis and biological evaluation of levofloxacin core-based derivatives with potent antibacterial activity against resistant Gram-positive pathogens” (Bioorg Med Chem Lett, 2015) are described below.

For data set [1], the system named is Escherichia coli. Kind of data set: Antimicrobial activity against ciprofloxacin-resistant Escherichia coli clinical isolates by standard broth microdilution method. The format is functional. In general terms: Dilution methods test growth across graded concentrations, often in twofold steps.
The test system of data set [2] is Staphylococcus aureus. Kind of data set: Antimicrobial activity against methicillin-resistant Staphylococcus aureus clinical isolates by standard broth microdilution method. The format is functional.
For data set [3], the system named is Streptococcus pyogenes. Kind of data set: Antimicrobial activity against Streptococcus pyogenes ATCC 19615 by standard broth microdilution method. The format is functional.
For data set [4], the system named is Escherichia coli. In words: Antimicrobial activity against Escherichia coli ATCC 25922 by standard broth microdilution method. The format is functional.
The test system of data set [5] is Streptococcus pneumoniae. Kind of data set: Antimicrobial activity against penicillin-resistant Streptococcus pneumoniae clinical isolates by standard broth microdilution method. The format is functional.
Data set [6] concerns Streptococcus pneumoniae. In words: Antimicrobial activity against Streptococcus pneumoniae ATCC 49619 by standard broth microdilution method. It is filed as functional.
The test system of data set [7] is Staphylococcus aureus. Kind of data set: Potency index, ratio of MIC for ciprofloxacin to MIC for test compound against Staphylococcus aureus ATCC 25923 by standard broth microdilution method. The format is functional.
Data set [8] relates to Staphylococcus aureus. Kind of data set: Antimicrobial activity against Staphylococcus aureus ATCC 25923 by standard broth microdilution method. It is filed as functional.
In data set [9] the test system is Staphylococcus epidermidis. Kind of data set: Antimicrobial activity against Staphylococcus epidermidis ATCC 12228 by standard broth microdilution method. The format is functional.
The subject of data set [10] is Staphylococcus aureus. In words: Potency index, ratio of MIC for moxifloxacin to MIC for test compound against Staphylococcus aureus ATCC 25923 by standard broth microdilution method. The format is functional.
In a further data set the test system is Pseudomonas aeruginosa. In words: Antimicrobial activity against Pseudomonas aeruginosa ATCC 27853 by standard broth microdilution method. The format is functional.
For data set [11], the system named is Staphylococcus epidermidis. In words: Antimicrobial activity against methicillin-resistant Staphylococcus epidermidis clinical isolates by standard broth microdilution method. It is filed as functional.
The nature of data set [12]: Aqueous solubility of the compound in water. It is filed as physicochemical.
In data set [13] the test system is Staphylococcus aureus. Kind of data set: Antimicrobial activity against levofloxacin-resistant Staphylococcus aureus clinical isolates by standard broth microdilution method. It is filed as functional.
Data set [14] has as its system Streptococcus pyogenes. In words: Potency index, ratio of MIC for penicillin to MIC for test compound against Streptococcus pyogenes ATCC 19615 by standard broth microdilution method. It is filed as functional.
Data set [15] in a line: Plasma clearance in beagle dog at 18.8 mg/kg, iv administered as single dose. The format is ADME, organism-based, Canis lupus familiaris.
The subject of data set [16] is Streptococcus pneumoniae. Kind of data set: Potency index, ratio of MIC for levofloxacin to MIC for test compound against penicillin-resistant Streptococcus pneumoniae clinical isolates by standard broth microdilution method. The format is functional.
The test system of data set [17] is Streptococcus pyogenes. In words: Potency index, ratio of MIC for ciprofloxacin to MIC for test compound against Streptococcus pyogenes ATCC 19615 by standard broth microdilution method. It is filed as functional.
Data set [18] has as its system Staphylococcus aureus. In words: Potency index, ratio of MIC for moxifloxacin to MIC for test compound against methicillin-resistant Staphylococcus aureus clinical isolates by standard broth microdilution method. The format is functional.
The nature of data set [19]: Toxicity in ICR mouse administered as single intravenous dose. The settings on record: in vivo. The format is organism-based.
The test system of data set [20] is Streptococcus pneumoniae. Kind of data set: Potency index, ratio of MIC for penicillin to MIC for test compound against penicillin-resistant Streptococcus pneumoniae clinical isolates by standard broth microdilution method. It is filed as functional.
Data set [21] has as its system Streptococcus pneumoniae. Kind of data set: Potency index, ratio of MIC for ciprofloxacin to MIC for test compound against penicillin-resistant Streptococcus pneumoniae clinical isolates by standard broth microdilution method. The format is functional.
Data set [22] can be described thus: Tmax in beagle dog at 18.8 mg/kg, iv administered as single dose. It is filed as ADME, organism-based, Canis lupus familiaris. The settings on record: in vivo.
The subject of data set [23] is Streptococcus pyogenes. Kind of data set: Potency index, ratio of MIC for levofloxacin to MIC for test compound against Streptococcus pyogenes ATCC 19615 by standard broth microdilution method. It is filed as functional.
Data set [24] is described as follows: AUC (0 to infinity) in beagle dog at 18.8 mg/kg, iv administered as single dose. The following applies: in vivo. It is filed as ADME, organism-based, Canis lupus familiaris. The arrangement: dose 18.8 mg/kg, time infinity, route intravenous.
Data set [25] in a line: Volume of distribution in beagle dog at 18.8 mg/kg, iv administered as single dose. It is filed as ADME, organism-based, Canis lupus familiaris. The settings on record: in vivo.
The nature of data set [26]: Cmax in beagle dog at 18.8 mg/kg, iv administered as single dose. The format is ADME, organism-based, Canis lupus familiaris. The arrangement: dose 18.8 mg/kg, route intravenous. The following applies: in vivo.
Data set [27] can be described thus: Elimination half life in beagle dog at 18.8 mg/kg, iv administered as single dose. The format is ADME, organism-based, Canis lupus familiaris. The following applies: in vivo, read-out: beta t1/2 (converted).
Data set [28] relates to Staphylococcus aureus. In words: Potency index, ratio of MIC for levofloxacin to MIC for test compound against methicillin-resistant Staphylococcus aureus clinical isolates by standard broth microdilution method. It is filed as functional.

Values after ≈ are worked out from the molar mass of the structure shown. Some results are limits rather than exact numbers.

As to `C[C@H]1COc2c(N3CCC(O)CC3)c(F)cc3c(=O)c(C(=O)O)cn1c23`, the MIC (commonly the lowest concentration found to suppress growth) in the data set with Escherichia coli [1] stood at 0.25 µg/mL (≈ 0.69 µM); against Staphylococcus aureus [2], 1 µg/mL (≈ 2.76 µM); against Streptococcus pyogenes [3] it was 0.0625 µg/mL (≈ 0.172 µM); against Escherichia coli [4], 0.125 µg/mL (≈ 0.345 µM); against Streptococcus pneumoniae [5], 0.031 µg/mL (≈ 0.0856 µM); against Streptococcus pneumoniae [6], 0.125 µg/mL (≈ 0.345 µM). In addition, the MIC was 0.031 µg/mL (≈ 0.0856 µM) with Staphylococcus aureus [8]; 0.031 µg/mL (≈ 0.0856 µM) in data set [9]; 2 µg/mL (≈ 5.52 µM) against Pseudomonas aeruginosa; 0.5 µg/mL (≈ 1.38 µM) in [11]; 0.5 µg/mL (≈ 1.38 µM) against Staphylococcus aureus [13]. Moreover, the Ratio in the data set on Staphylococcus aureus [7] was found to be 16; in the data set on Staphylococcus aureus [10], 2. For the same molecule, the solubility (in general, how much of the substance goes into solution per volume) in data set [12] turned out to be 650 µg/mL (≈ 1790 µM).
For the molecule `C[C@H]1COc2c(N3CCC(O)CC3)c(F)cc3c(=O)c(C(=O)O)cn1c23.N=C(N)NCCC[C@H](N)C(=O)O.O`, the MIC in the data set with Escherichia coli [1] was 0.25 µg/mL; against Staphylococcus aureus [2], 1 µg/mL; in the data set with Streptococcus pyogenes [3], at most 0.016 µg/mL; with Escherichia coli [4], 0.125 µg/mL; against Streptococcus pneumoniae [5], at most 0.016 µg/mL; against Streptococcus pneumoniae [6], 0.125 µg/mL. In addition, the MIC in the data set on Staphylococcus aureus [8] was found to be 0.031 µg/mL; in [9], 0.031 µg/mL; against Pseudomonas aeruginosa it was 2 µg/mL; in data set [11] it was 1 µg/mL; in the data set with Staphylococcus aureus [13], 0.25 µg/mL. The Ratio was 64 with Streptococcus pyogenes [14]; 32 in the data set with Streptococcus pneumoniae [16]; 32 in the data set with Streptococcus pyogenes [17]; 4 with Staphylococcus aureus [18]; 64 in the data set with Streptococcus pneumoniae [20]; 32 with Streptococcus pneumoniae [21]. Moreover, the Ratio with Streptococcus pyogenes [23] came to 32. Further, in data set [15], the clearance (in general, the volume of plasma or blood freed of the substance per unit of time) was 11.6 mL/min/kg. Moreover, the LD50 (commonly the dose expected to kill half of the subjects tested) in data set [19] stood at 1400 mg/kg. The Tmax (usually the time from dosing to the highest level) in data set [22] stood at 4.8 min. The area under the curve AUC(0-inf) (commonly the area under the concentration-time curve extrapolated to infinity) in data set [24] came to 27000 ng·h/mL. Further, the Vd – broadly, the apparent volume that relates the amount in the body to the concentration in plasma or blood – in [25] was 3.27 L/kg. Moreover, in data set [26], the Cmax (usually the peak of the concentration-time curve) came out at 15700 ng/mL. The molecule also yielded a solubility in data set [12] of 5330 µg/mL. Also, the half-life in [27] is 195 min.
On to `C[C@H]1COc2c(N3CC[C@H](O)C3)c(F)cc3c(=O)c(C(=O)O)cn1c23`, for which the MIC was 0.0625 µg/mL (≈ 0.179 µM) in the data set on Escherichia coli [1]; 1 µg/mL (≈ 2.87 µM) in the data set on Staphylococcus aureus [2]; 2 µg/mL (≈ 5.74 µM) against Streptococcus pyogenes [3]; at most 0.016 µg/mL against Escherichia coli [4]; 2 µg/mL (≈ 5.74 µM) against Streptococcus pneumoniae [5]; 2 µg/mL (≈ 5.74 µM) in the data set with Streptococcus pneumoniae [6]. Also, the MIC in the data set with Staphylococcus aureus [8] was 0.031 µg/mL (≈ 0.089 µM); in data set [9], 0.031 µg/mL (≈ 0.089 µM); in the data set on Pseudomonas aeruginosa, 1 µg/mL (≈ 2.87 µM); in data set [11] it was 1 µg/mL (≈ 2.87 µM); against Staphylococcus aureus [13] it was 0.25 µg/mL (≈ 0.718 µM). In addition, the results for the Ratio in the data set with Staphylococcus aureus [28] and with Staphylococcus aureus [18] were 32 and 4, respectively.
